Several values for one entry are separate records, joined by “and”; a condition that tells them apart may be missing. Equal entries are not always repeated.
Legend:
[1] = target: T1, EphB4 (Homo sapiens, UniProt P54760); assay: IC50 and % inhibition (Table 3); assay type: biochemical; conditions: for IC50: Table 3, repeated determinations, read-out: IC50; for inhibition at 10 µM / inhibition at 20 µM: read-out: % inhibition at indicated concentration C
T1 sequence (P54760 16-987): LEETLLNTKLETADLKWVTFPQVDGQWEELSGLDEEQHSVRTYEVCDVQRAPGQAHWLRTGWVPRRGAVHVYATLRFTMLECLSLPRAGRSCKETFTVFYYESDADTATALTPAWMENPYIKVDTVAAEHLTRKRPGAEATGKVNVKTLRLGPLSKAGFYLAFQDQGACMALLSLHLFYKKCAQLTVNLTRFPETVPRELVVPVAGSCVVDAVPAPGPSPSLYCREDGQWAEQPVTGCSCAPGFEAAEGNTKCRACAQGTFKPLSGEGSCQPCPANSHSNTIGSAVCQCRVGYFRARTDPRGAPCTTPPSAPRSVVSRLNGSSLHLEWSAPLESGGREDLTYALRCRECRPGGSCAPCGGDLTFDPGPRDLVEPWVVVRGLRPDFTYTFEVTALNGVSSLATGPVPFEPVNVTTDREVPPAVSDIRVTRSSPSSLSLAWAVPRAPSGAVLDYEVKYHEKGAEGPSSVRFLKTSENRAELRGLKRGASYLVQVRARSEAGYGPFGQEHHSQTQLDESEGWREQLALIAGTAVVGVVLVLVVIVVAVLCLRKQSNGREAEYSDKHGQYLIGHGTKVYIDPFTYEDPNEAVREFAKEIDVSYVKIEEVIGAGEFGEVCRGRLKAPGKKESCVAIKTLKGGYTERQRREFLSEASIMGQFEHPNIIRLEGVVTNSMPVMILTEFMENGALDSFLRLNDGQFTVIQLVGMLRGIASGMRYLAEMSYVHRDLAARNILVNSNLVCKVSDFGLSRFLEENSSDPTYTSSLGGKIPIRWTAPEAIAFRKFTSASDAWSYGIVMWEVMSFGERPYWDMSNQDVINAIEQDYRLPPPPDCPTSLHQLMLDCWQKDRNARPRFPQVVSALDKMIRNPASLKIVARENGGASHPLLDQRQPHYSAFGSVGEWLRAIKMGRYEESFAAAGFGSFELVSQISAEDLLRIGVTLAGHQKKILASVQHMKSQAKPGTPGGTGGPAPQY

[2] = target: T1, EphB4; assay: Panvera Z'Lyte FRET-based enzymatic assay; conditions: for Inhibitory activity in the enzymatic assay (in words): Z'Lyte
Protocol: In vitro kinase activity was measured using the Panvera Z'Lyte Tyr2 kinase assay PV3191 (Invitrogen, USA), according to the manufacturer's instructions. […] The reaction is performed at room temperature for 1 hour.

[3] = target: T2, myc-tagged full-length human EphB4 (Homo sapiens, UniProt P54760); assay: Phospho-EphB4 ELISA of CHO cells (EphB4 autophosphorylation); assay type: cell-based; conditions: in CHO cells, at 20 μM
T2 construct: stably transfected with myc-tagged full-length human EphB4; expressed in transfected cells; host or cells: CHO-FRT cells (Flip-In System, Invitrogen)
T2 sequence (P54760 16-987): T1 sequence (P54760 16-987)
Protocol: Phospho-EphB4 ELISA of CHO cells. The ELISA assay was performed as follows: Chinese hamster ovary (CHO)-FRT cells are stably transfected with myc-tagged full-length human EphB4 according to the Flip-In System protocol (Invitrogen, USA). […] Cells of this clone are preincubated with EphB4 inhibitors for 15 minutes and then stimulated with preclustered ephrinB2-Fc for 45 minutes at 37° C. Cells are lysed, transferred to a 96-well plate coated with anti-myc antibody and incubated overnight at 4° C. After incubation with anti-phosphotyrosine antibody, reactions are developed with BM Blue peroxydase substrate, and autophosphorylation of EphB4 is quantified by measuring absorption at 450 nm.

COC(=O)Cn1c(=O)[nH]c(=O)c2c1nc1n(-c3ccccc3OC)c(-c3ccc(F)cc3)cn21 [Compound 32, 8-(2-Methoxyphenyl)-1-(methoxy-2-oxoethyl)-7-(p-Fluorophenyl)-1H-imidazo[2,1-f]purine-2,4(3H,8H)-dione]
IC50 [1]: 9.5 µM and 8.9 µM

O=c1[nH]c(=O)n(Cc2ccccc2)c2nc3n(-c4ccccc4)c(-c4ccc(F)cc4)c(Br)n3c12 [Compound 36, 1-Benzyl-6-bromo-7-p-fluorophenyl-8-phenyl-1H-imidazo[2,1-f]purine-2,4(3H,8H)-dione]
melting point: 276 to 278 °C | % inhibition at indicated concentration C ([1]; C = 10 μM, 10 µM): 10% and 4%

CC1(C)Cc2c(sc(NC(=O)Nc3ccccc3)c2C(N)=O)CO1 [Compound 9, reference compound]
IC50 ([2]; read-out: Enzymatic assays IC50 Z′Lyte, FRET-based, 10 μM ATP, 1% DMSO, room temperature 1 hour): 76 µM

COc1ccccc1-n1c(-c2ccc([N+](=O)[O-])cc2)cn2c3c(=O)[nH]c(=O)n(C)c3nc12 [Compound 27, 8-(2-Methoxyphenyl)-1-methyl-7-p-nitrophenyl-1H-imidazo[2,1-f]purine-2,4(3H,8H)-dione]
melting point: 323 to 325 °C

CCCCn1c(-c2ccccc2)c(Br)n2c3c(=O)[nH]c(=O)n(C)c3nc12 [Compound 38, 6-Bromo-8-butyl-1-methyl-7-phenyl-1H-imidazo[2,1-f]purine-2,4(3H,8H)-dione]
melting point: 302 to 304 °C

CCCn1c(-c2ccccc2)cn2c3c(=O)[nH]c(=O)n(C)c3nc12 [Compound 4]
Cell-based assay percent inhibition [3]: neg. | % inhibition at indicated concentration C ([1]; C = 10 μM, 10 µM): 58% and 54% | inhibition at 10 µM ([1]; C = 10 μM): 62% | IC50 [1]: 8 µM and 9 µM | IC50 [2]: 1.9 µM | Inhibitory activity in the enzymatic assay (in words) [2]: low-micromolar

O=c1[nH]c(=O)n(Cc2ccccc2)c2nc3n(-c4ccccc4)c(-c4ccc(F)cc4)cn3c12 [Compound 21, 1-Benzyl-7-p-fluorophenyl-8-phenyl-1H-imidazo[2,1-f]purine-2,4(3H,8H)-dione]
melting point: 250 to 252 °C

COc1ccccc1-n1c(-c2ccccc2)c(C#N)n2c3c(=O)[nH]c(=O)n(C)c3nc12 [Compound 41, 6-Cyano-8-(2-methoxyphenyl)-1-methyl-7-phenyl-1H-imidazo[2,1-f]purine-2,4(3H,8H)-dione]
% inhibition at indicated concentration C ([1]; C = 20 μM, 20 µM): 30% | inhibition at 20 µM ([1]; C = 20 μM): 21%

Cn1c(-c2ccccc2)cn2c3c(=O)[nH]c(=O)n(Cc4ccccc4)c3nc12 [Compound 19, 1-Benzyl-8-methyl-7-phenyl-1H-imidazo[2,1-f]purine-2,4(3H,8H)-dione]
melting point: 306 to 308 °C

COc1ccc(OC)c(-n2c(-c3ccc(F)cc3)cn3c4c(=O)[nH]c(=O)n(C)c4nc23)c1 [Compound 17]
% inhibition at indicated concentration C ([1]; C = 10 μM, 10 µM): 62% | inhibition at 10 µM ([1]; C = 10 μM): 72%

COc1ccccc1-n1c(-c2ccc(F)cc2)cn2c3c(=O)[nH]c(=O)n(CSC)c3nc12 [Compound 34, 8-(2-Methoxyphenyl)-1-(methylthiomethyl)-7-(p-Fluorophenyl)-1H-imidazo[2,1-f]purine-2,4(3H,8H)-dione]
IC50 [1]: 5.1 µM and 6.4 µM

COc1ccccc1-n1c(-c2ccc(F)cc2)cn2c3c(=O)[nH]c(=O)n(Cc4ccccc4)c3nc12 [Compound 22, 1-Benzyl-7-p-fluorophenyl-8-(2-methoxyphenyl)-1H-imidazo[2,1-f]purine-2,4(3H,8H)-dione]
melting point: 251 to 253 °C

COc1ccccc1-n1c(-c2ccc(C#N)cc2)cn2c3c(=O)[nH]c(=O)n(C)c3nc12 [Compound 28, 8-(2-Methoxyphenyl)-1-methyl-7-p-cyanophenyl-1H-imidazo[2,1-f]purine-2,4(3H,8H)-dione]
melting point: 303 to 305 °C | % inhibition at indicated concentration C ([1]; C = 20 μM, 20 µM): 17% | inhibition at 20 µM ([1]; C = 20 μM): 13%

COc1ccccc1-n1c(-c2ccc(F)cc2)cn2c3c(=O)[nH]c(=O)[nH]c3nc12 [Compound 30, 7-p-Fluorophenyl-8-(2-methoxyphenyl)-1H-imidazo[2,1-f]purine-2,4(3H,8H)-dione]
IC50 [1]: 4.6 µM and 6.2 µM

COc1ccccc1-n1c(-c2ccccc2)cn2c3c(=O)[nH]c(=O)n(Cc4ccccc4)c3nc12 [Compound 25, 1-Benzyl-8-(2-methoxyphenyl)-7-phenyl-1H-imidazo[2,1-f]purine-2,4(3H,8H)-dione]
melting point: 301 to 303 °C | % inhibition at indicated concentration C ([1]; C = 10 μM, 10 µM): 11% | inhibition at 10 µM ([1]; C = 10 μM): 15%

O=c1[nH]c(=O)n(Cc2ccccc2)c2nc3[nH]c(-c4ccccc4)cn3c12 [Compound 18, 1-Benzyl-7-phenyl-1H-imidazo[2,1-f]purine-2,4(3H,9H)-dione]
melting point: 393 to 395 °C

Cn1c(=O)[nH]c(=O)c2c1nc1n(CCCCO)c(-c3ccc(NCCCCO)cc3)cn21 [Compound 29]
melting point: 205 to 207 °C | % inhibition at indicated concentration C ([1]; C = 20 μM, 20 µM): 50% and 62% and 37% and 34%

COCCCn1c(-c2ccccc2)cn2c3c(=O)[nH]c(=O)n(C)c3nc12 [Compound 6]
inhibition at 20 µM ([3]; read-out: Cell-based assay percent inhibition): 28% | % inhibition at indicated concentration C ([1]; C = 10 μM, 10 µM): 46% | inhibition at 10 µM ([1]; C = 10 μM): 49% | IC50 [2]: 50 µM | Inhibitory activity in the enzymatic assay (in words) [2]: mid-micromolar range

CNc1ccc(-c2cn3c4c(=O)[nH]c(=O)n(Cc5ccccc5)c4nc3n2C)cc1 [Compound 20, 1-Benzyl-8-methyl-7-p-methylaminophenyl-1H-imidazo[2,1-f]purine-2,4(3H,8H)-dione]
melting point: 288 to 290 °C

COc1ccccc1-n1c(-c2ccccc2)c(Br)n2c3c(=O)[nH]c(=O)n(C)c3nc12 [Compound 37, 6-Bromo-8-(2-methoxyphenyl)-1-methyl-7-phenyl-1H-imidazo[2,1-f]purine-2,4(3H,8H)-dione]
melting point: 274 to 276 °C

COc1ccccc1-n1c(-c2ccc(F)cc2)cn2c3c(=O)[nH]c(=O)n(CS(C)(=O)=O)c3nc12 [Compound 35, 8-(2-Methoxyphenyl)-1-(methylsulfonylmethyl)-7-(p-Fluorophenyl)-1H-imidazo[2,1-f]purine-2,4(3H,8H)-dione]
IC50 [1]: 7.9 µM and 7.1 µM

COc1ccc(-n2c(-c3ccc(F)cc3)cn3c4c(=O)[nH]c(=O)n(C)c4nc23)c(OC)c1 [Compound 16]
% inhibition at indicated concentration C ([1]; C = 10 μM, 10 µM): 50% and 28%

COc1ccccc1-n1c(-c2ccc(C(=O)O)cc2)cn2c3c(=O)[nH]c(=O)n(C)c3nc12 [Compound 44, 8-(2-Methoxyphenyl)-1-methyl-7-p-carboxyphenyl-1H-imidazo[2,1-f]purine-2,4(3H,8H)-dione]
% inhibition at indicated concentration C ([1]; C = 20 μM, 20 µM): 23% and 19% and 13% | inhibition at 20 µM ([1]; C = 20 μM): 12%

— patent US8765775B2, “Anti-angiogenic compounds” (Universitaet Zuerich, priority 2008, dated 2014)
